Several values for one entry are separate records, joined by “and”; a condition that tells them apart may be missing. Equal values may be shown once.
What follows are molecules tested against Hrh3 protein (Rattus norvegicus, UniProt Q5PPG3).
Sequence of Hrh3 protein (Q5PPG3 whole entry): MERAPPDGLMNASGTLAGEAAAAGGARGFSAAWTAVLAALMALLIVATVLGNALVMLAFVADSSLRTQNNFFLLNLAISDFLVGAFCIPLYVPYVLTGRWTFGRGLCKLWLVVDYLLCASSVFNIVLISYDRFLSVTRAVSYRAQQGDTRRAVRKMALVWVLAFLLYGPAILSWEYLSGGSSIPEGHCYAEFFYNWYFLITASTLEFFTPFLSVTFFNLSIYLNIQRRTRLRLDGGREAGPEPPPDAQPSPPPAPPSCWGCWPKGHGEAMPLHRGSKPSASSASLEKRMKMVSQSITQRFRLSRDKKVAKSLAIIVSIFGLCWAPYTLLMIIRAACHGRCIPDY

Row | Structure (SMILES) | Ki
1 | C[C@@H](N)Cc1c[nH]cn1 | 0.004 µM and 0.0005 µM
2 | S=C(NC1CCCCC1)N1CCC(c2cnc[nH]2)CC1 | 0.004 µM and 0.002 µM
3 | CNC(=S)NCCCCc1cnc[nH]1 [1-[4-(1H-imidazol-5-yl)butyl]-3-methylthiourea] | 0.068 µM and 0.07 µM and 0.18 µM
4 | N=C(N)SCCc1cnc[nH]1 [2-(3H-imidazol-4-yl)ethylsulfanylmethanimidamide] | 0.00015 µM and 0.001 µM and 0.0001 µM
5 | Cc1[nH]cnc1CSCCNC(=N)NCCCc1c[nH]cn1 [2-[3-(1H-imidazol-5-yl)propyl]-1-(2-{[(5-methyl-1H-imidazol-4-yl)methyl]sulfanyl}ethyl)guanidine] | 0.075 µM and 0.065 µM and 0.045 µM
6 | C[C@H](N)Cc1c[nH]cn1 [CAS_75614-93-6] | 0.077 µM and 0.47 µM and 0.05 µM
7 | CCCCCCC(=O)N1CCC(c2cnc[nH]2)CC1 [Carboperamide] | 0.0061 µM and 0.02 µM

Source: BindingDB's records for PubMed 7965746 (U. 109, 1994)
